{"source": "paper PMC11768370", "about": "“Etodolac Single Dose Metabolic Profile Elucidation: Pharmacokinetics and Adverse Events in Healthy Volunteers” (Pharmaceuticals, 2025)", "test_system": "plasma metabolites", "assay": "Untargeted plasma metabolomic profile pre-dose (T0) vs post-dose (Tmax), UPLC-QToF", "assay_type": "in vivo, human", "conditions": "healthy volunteers, single dose 500 mg", "protocol": "Samples were collected at two times: (i) baseline samples (time 0 h), termed the pre-dose group, and (ii) samples at maximum drug concentration (Cmax), termed the post-dose group. Samples were randomized, and 25 μL of each was collected to form a pooled sample for quality control (QC). An aliquot of plasma (200 μL) was extracted by adding cold methanol (400 μL) for protein precipitation. The samples were then vortexed for 30 s and centrifuged at 12,879× g for 10 min at 4 °C. Finally, the supernatant (400 μL) was collected and dried over a stream of nitrogen gas (N2). Samples were resuspended with 200 µL of acetonitrile (ACN)/water (H2O) (1:1 v/v). Sample extraction and analysis were randomized to reduce instrumental and biological bias. QC samples were analyzed every 10 samples to check for variations in extraction and system stability.\nThe analysis was adapted and performed on an ACQUITY® FTN H Class (Waters, Newcastle, UK) liquid chromatography (UPLC) coupled to a XEVO-G2XS (QToF) quadrupole time-of-flight mass spectrometer (UPLC-QToF) (Waters, Manchester, UK) equipped with an electrospray ionization (ESI) source operated in the positive and negative ionization mode, separately. An ACQUITY UPLC ® CSH C18 column (2.1 mm × 100 mm × 1.7 µm, Waters, Newcastle, UK) was employed as a stationary phase. […]", "data": [{"smiles": "CCc1cccc2c3c([nH]c12)C(CC)(CC(=O)O)OCC3", "note": "(centres unmarked) [Etodolac]", "values": [{"measurement": "6-ketoprostaglandin E1 relative abundance at Tmax compared to T0", "value": "increases twist time in relative abundance"}, {"measurement": "15-epi-lipoxin A4 relative abundance at Tmax compared to T0", "value": "increases in relative abundance"}]}]}
